From US20250332151A1, “METHODS OF TREATMENT FOR CYSTIC FIBROSIS” (Vertex Pharmaceuticals Incorporated, priority 2022, published 2025)

Columns and labels:
[1] = target: T1, CFTR in F508del/MF-HBE cells (Homo sapiens, UniProt P13569, DEL508-508); assay: Ussing chamber assay of CFTR-mediated short-circuit currents (potentiator activity); format: cell-based; conditions: 18-24 hours at 37° C. with 10 μM Compound VII, 20% human serum, CFTR-mediated ISC
T1 construct: human bronchial epithelial (HBE) cells derived from CF subjects; endogenous in cells; host or cells: primary human bronchial epithelial cells from CF subjects (F508del/MF-HBE)
Description: Ussing chamber experiments were performed using human bronchial epithelial (HBE) cells derived from CF subjects heterozygous for F508del and a minimal function CFTR mutation (F508del/MF-HBE) and cultured as previously described (Neuberger T, Burton B, Clark H, Van Goor F Methods Mol Biol 2011:741:39-54). After four days the apical media was removed, and the cells were grown at an air liquid interface for >14 days prior to use.
To isolate the CFTR-mediated short-circuit (ISC) current, F508del/MF-HBE grown on Costar® Snapwell™ cell culture inserts were mounted in an Ussing chamber and the transepithelial ISC was measured under voltage-clamp recording conditions (Vhold=0 mV) at 37° C. The basolateral solution contained (in mM) 145 NaCl, 0.83 K2HPO4, 3.3 KH2PO4, 1.2 MgCl2, 1.2 CaCl2), 10 Glucose, 10 HEPES (pH adjusted to 7.4 with NaOH) and the apical solution contained (in mM) 145 NaGluconate, 1.2 MgCl2, 1.2 CaCl2), 10 glucose, 10 HEPES (pH adjusted to 7.4 with NaOH) and 30 μM amiloride to block the epithelial sodium channel. […] The CFTR-mediated ISC (uA/cm2) for each condition was determined from the peak forskolin response to the steady-state current following inhibition.
The activity of the CFTR potentiator compounds on the CFTR-mediated ISC was determined in Ussing chamber studies as described above. […]

[2] = First-in-human (FIH) clinical study of safety, tolerability and PK in healthy subjects; format: in vivo; conditions: single doses 3 mg to 1500 mg (Part A), total daily doses 10 mg to 300 mg for ten days (Part B), Part C, suspension, all cohorts
Description: In a first-in-human (FIH) clinical study of Compound I, the safety, tolerability, and pharmacokinetics (PK) of Compound I in healthy subjects was evaluated. Assessments of the relative bioavailability (BA) of Suspension 2 of Compound I compared to Suspension 1 of Compound I, food effect, and drug drug interactions (DDIs) between Compound I and itraconazole and midazolam were conducted.
This first-in-human (FIH) study of Compound I included three parts (Parts A, B, and C).
Approximately 154 healthy adult subjects were planned to be enrolled in planned cohorts. Approximately 76 subjects were planned to be enrolled in Part A (excluding optional Part A Cohorts), approximately 48 subjects in Part B (excluding optional Part B Cohorts), and approximately 30 subjects in Part C. There was no pre-specified ratio of males to females, but reasonable effort was made to enroll females of non-childbearing potential in all dosing cohorts.
Six dose escalation cohorts were planned for Part A, and five dose escalation cohorts were planned for Part B. Additional cohorts (A7 and A8) in Part A were enrolled based on data from previous cohorts. […]
Food effect was evaluated in an open label, single sequence Cohort A9 to evaluate the effect of food on the PK of Compound I based on emerging PK data during dose escalation. […]

T1 sequence (P13569 with tags, fused parts or gaps DEL508-508): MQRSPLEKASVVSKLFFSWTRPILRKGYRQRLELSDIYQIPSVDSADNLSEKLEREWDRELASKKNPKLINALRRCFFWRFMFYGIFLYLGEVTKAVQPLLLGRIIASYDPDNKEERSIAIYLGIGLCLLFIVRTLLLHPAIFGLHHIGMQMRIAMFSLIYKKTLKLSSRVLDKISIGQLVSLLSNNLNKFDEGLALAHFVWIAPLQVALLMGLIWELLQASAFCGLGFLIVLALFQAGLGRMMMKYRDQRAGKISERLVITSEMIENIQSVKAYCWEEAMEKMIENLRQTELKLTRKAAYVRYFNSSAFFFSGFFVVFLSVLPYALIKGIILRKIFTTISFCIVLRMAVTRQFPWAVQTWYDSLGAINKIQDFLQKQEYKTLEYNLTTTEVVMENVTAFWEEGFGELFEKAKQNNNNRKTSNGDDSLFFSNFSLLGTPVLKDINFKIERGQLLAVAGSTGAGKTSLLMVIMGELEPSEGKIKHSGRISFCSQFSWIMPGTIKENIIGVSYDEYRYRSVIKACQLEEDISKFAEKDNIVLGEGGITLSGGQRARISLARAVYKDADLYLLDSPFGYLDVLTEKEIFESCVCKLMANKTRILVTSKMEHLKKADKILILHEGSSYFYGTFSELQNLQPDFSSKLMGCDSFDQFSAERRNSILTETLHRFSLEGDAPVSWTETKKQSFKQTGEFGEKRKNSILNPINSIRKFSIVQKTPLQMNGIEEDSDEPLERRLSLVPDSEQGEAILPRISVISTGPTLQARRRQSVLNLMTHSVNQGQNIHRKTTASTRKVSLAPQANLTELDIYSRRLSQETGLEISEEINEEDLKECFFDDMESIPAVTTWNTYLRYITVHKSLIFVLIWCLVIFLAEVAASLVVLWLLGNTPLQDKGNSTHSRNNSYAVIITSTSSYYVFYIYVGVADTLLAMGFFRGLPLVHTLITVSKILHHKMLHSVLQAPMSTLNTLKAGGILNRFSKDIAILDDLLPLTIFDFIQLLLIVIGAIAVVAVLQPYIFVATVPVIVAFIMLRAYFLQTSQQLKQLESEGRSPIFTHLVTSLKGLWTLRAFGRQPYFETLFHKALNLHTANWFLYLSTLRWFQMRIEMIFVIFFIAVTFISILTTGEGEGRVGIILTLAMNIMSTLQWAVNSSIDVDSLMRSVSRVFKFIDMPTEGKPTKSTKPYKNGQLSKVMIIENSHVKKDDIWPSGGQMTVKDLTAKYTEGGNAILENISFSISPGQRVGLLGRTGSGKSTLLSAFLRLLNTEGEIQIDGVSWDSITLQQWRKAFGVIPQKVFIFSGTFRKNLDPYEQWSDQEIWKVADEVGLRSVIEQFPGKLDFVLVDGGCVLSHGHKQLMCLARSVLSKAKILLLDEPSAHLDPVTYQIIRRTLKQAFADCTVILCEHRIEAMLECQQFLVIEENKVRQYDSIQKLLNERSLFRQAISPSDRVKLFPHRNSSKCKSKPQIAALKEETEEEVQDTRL

EC50 [1]: < 500 nM
SMILES: CC1(C)CCCCC[C@](O)(C(F)(F)F)C2=NN=C(O2)c2nc(c(C(F)(F)F)cc2N)N1 [Compound I, (6R)-17-amino-12,12-dimethyl-6,15-bis(trifluoromethyl)-19-oxa-3,4,13,18-tetrazatricyclo[12.3.1.12,5]nonadeca-1 (18),2,4,14,16-pentaen-6-ol]
safety and tolerability [2]: generally safe and well-tolerated
